In assay [1] the test system is Primary Carcinoma (UT) breast cells. The following applies: 19 samples; cited from earlier work.
Assay [2] relates to Metastatic Carcinoma (UT) breast cells. The following applies: 4 samples; cited from earlier work.
Assay [3] concerns Metastatic Carcinoma (Rx) breast cells. Particulars: 10 samples; cited from earlier work.
Assay [4] relates to Skin Fibroblast (DET551). The assay is described as follows: Alamar Blue Assay. Format: cell-based. For orientation: Alamar Blue is a resazurin reagent that responds to reducing activity.
Assay [5] has as its system Breast (MDA 468). The assay is described as follows: Alamar Blue Assay. Format: cell-based.
Assay [6] deals with Sarcoma (Saos 2). The assay is described as follows: Alamar Blue Assay. The class given is cell-based. Particulars: Homo sapiens.
The subject of assay [7] is Breast (MCF7). The experiment in a line: Alamar Blue Assay. The class given is cell-based. Particulars: Homo sapiens.
In assay [8] the test system is Normal Cells. The assay is described as follows: Alamar Blue Assay, mean over normal cells. The class given is cell-based. Particulars: mean of the three normal cell types; read-out: mean IC50 (X̄).
The test system of assay [9] is Lung Epithelium (W138). The assay is described as follows: Alamar Blue Assay. Format: cell-based.
Assay [10] concerns Tumor Cells. The assay is described as follows: Alamar Blue Assay, mean over tumor cells. Particulars: mean of the three tumor cell lines; read-out: mean IC50 (X̄). Format: cell-based.
The test system of assay [11] is Colon Epithelium (CCD18co). The assay is described as follows: Alamar Blue Assay. Format: cell-based. The following applies: Homo sapiens, CCD-18Co.
Assay [12] concerns H630R10 (colon cancer cell line). The assay is described as follows: Crystal violet cell proliferation assay. Format: cell-based, human. Particulars: for IC50: Homo sapiens. As for the experimental part:
(§1) Two cell lines, H630R10 (Copur, et al. (1995)) and normal colon epithelial cells, CCD18co (ATCC) were used in these assays. The H630P (Copur et al. (1995)) cell line was selected for resistance to 10 μM 5-FU to give rise to H630R10. The characterization of these cell lines which expresses an elevated level of the TS enzyme. A normal colon epithelial cell type CCD18co (available from the ATCC) was used for comparison with H630R10 for sensitivity to test compounds.
(§2) The ability of the test compounds to block proliferation of cells was determined by the crystal violet procedure (Sugarman et al. (1985) and Antelman et al. (1995)).
(§3) Compounds were dissolved in dimethyl sulfoxide to a concentration of 1M. They were further diluted as necessary into DMEM cell culture medium, and subsequently into the first wells of the 96 Well microtiter plate. Each concentration was tested in triplicate on the target cell line. Compound concentrations from 1 μM to 3000 μM were tested. Cells were incubated with compound for 72 hours, the plates were washed, and the cells fixed with methanol and stained with crystal violet as described in Sugarman et al. ([…]) and Antelman, et al. (1995).

Assay [13] has as its system CCD18co (normal colon epithelium). The assay is described as follows: Crystal violet cell proliferation assay. Format: cell-based, human. The following applies: for IC50: Homo sapiens, CCD-18Co. As for the experimental part: as §1, §2, §3
The mark [14] stands for this setting: Table 6, H630R10, 72 hours, standard error less than 20%.

The text below walks through data of patent US6339151B1, “Enzyme catalyzed therapeutic agents” (NewBiotics, Inc., priority 1998, dated 2002).

For orientation: IC50 means the point on the concentration scale where inhibition reaches its midpoint.

Each structure is given as a SMILES string.

Consider `COc1cccc2c1C(=O)c1c(O)c3c(c(O)c1C2=O)C[C@@](O)(C(=O)CO)C[C@@H]3O[C@H]1C[C@H](N)[C@H](O)[C@H](C)O1` [Doxorubicin, doxorubicin], for which the “Average IC50” value in assay [1] is 0.0114 ± 0.0068 µg/mL; in assay [2], 0.036 ± 0.0263 µg/mL; in [3] it was 0.0198 ± 0.0127 µg/mL.

Regarding `O=c1[nH]cc(F)c(=O)[nH]1` [5-Fluorouracil, 5-fluorouracil], the concentration for half-maximal inhibition (IC50) worked out at 1.1 µM in assay [4]; 0.4 µM in assay [5]; 11.3 µM in [6]; 0.61 µM in assay [7]; 0.57 µM in [8]; 0.4 µM in assay [9]. Also, the 50% inhibitory concentration (IC50) in assay [10] came to 4.1 µM; in [11], 0.2 µM.

Turning to `O=c1[nH]c(=O)n([C@H]2C[C@H](O)[C@@H](CO)O2)cc1F` [Compound 5-FUdR, 5-fluoro-2′-deoxyuridine], the IC50 in assay [12] (setting [14]) came to 170 ± 2.4 µM; in assay [12] (Table 7, H630R10 (colon cancer cell line), representative data from several assays, triplicate wells), 170 µM; in [13] (Table 7, CCD18co (normal colon epithelium), representative data from several assays, triplicate wells) it was 9.5 µM. In addition, the “fold more sensitive CCD18co than H630-R10” value in assay [13] (normal colon epithelial CCD18co vs H630-R10 colon tumor cells) was “approximately 18 fold”.

Regarding `O=c1[nH]c(=O)n([C@H]2C[C@H](O)[C@@H](CO)O2)cc1/C=C/Br` [BVDU, (E)-5-(2-bromovinyl)-2′-deoxyuridine], the “activity in the proliferation assay” value in assay [12] (CCD18co and H630R10, Table 6 line 2) is “little activity”. Moreover, in [12] (CCD18co vs H630R10), the “difference in sensitivity of the two cell lines” value is on record as “no significant difference”. Besides, the concentration for half-maximal inhibition (IC50) was determined as 2880 ± 54.5 µM in assay [12] (setting [14]) and 2540 ± 58.2 µM in assay [13] (Table 6, CCD18co, 72 hours, standard error less than 20%).
